Our source for the affinity toward kinases values is US20110136880A1, “Latrunculin-Based Macrolides and Their Uses” (priority 2009, published 2011).

This assay has as its system array of kinases. The experiment in a line: Kinase profiling. The format is binding. To be noted: any kinase tested. How it is done:
Latrunculins B and H (compounds 20 and 14, respectively) were tested in a panel of assays including ApoE secretion, anti-angiogenesis, G2/M, Wnt pathway, insulin secretion, and an array of kinase profiling. The G2/M assays include HeLa cell proliferation, apoptosis, DNA content, and condensation, cyclin B, and phosphor-histone H3. […] Alkaline phosphatases may perhaps be a target of the anti-invasive latrunculin 11.

`C/C1=C/C(=O)O[C@@H]2C[C@@H](CC[C@H](C)/C=C\C=C\CC1)O[C@@](O)([C@@H]1CSC(=O)N1CO)C2` [Compound 14, N-Hydroxymethyllatrunculin A]: the affinity toward kinases entry was “Neither compound 20 nor compound 14 showed affinity toward any kinase tested”.
